Assay results taken from ChEMBL document CHEMBL5465560, “Selectivity Literature for EUbOPEN Chemogenomic Library” (2024).

What was measured:
[1] = target: T1, Tyrosine-protein kinase receptor TYRO3 (Homo sapiens) (UniProt Q06418); assay: Selectivity interaction (KinomeScan (DiscoverX)) EUB0001049a TYRO3; settings: at 1 µM
T1 sequence (whole entry): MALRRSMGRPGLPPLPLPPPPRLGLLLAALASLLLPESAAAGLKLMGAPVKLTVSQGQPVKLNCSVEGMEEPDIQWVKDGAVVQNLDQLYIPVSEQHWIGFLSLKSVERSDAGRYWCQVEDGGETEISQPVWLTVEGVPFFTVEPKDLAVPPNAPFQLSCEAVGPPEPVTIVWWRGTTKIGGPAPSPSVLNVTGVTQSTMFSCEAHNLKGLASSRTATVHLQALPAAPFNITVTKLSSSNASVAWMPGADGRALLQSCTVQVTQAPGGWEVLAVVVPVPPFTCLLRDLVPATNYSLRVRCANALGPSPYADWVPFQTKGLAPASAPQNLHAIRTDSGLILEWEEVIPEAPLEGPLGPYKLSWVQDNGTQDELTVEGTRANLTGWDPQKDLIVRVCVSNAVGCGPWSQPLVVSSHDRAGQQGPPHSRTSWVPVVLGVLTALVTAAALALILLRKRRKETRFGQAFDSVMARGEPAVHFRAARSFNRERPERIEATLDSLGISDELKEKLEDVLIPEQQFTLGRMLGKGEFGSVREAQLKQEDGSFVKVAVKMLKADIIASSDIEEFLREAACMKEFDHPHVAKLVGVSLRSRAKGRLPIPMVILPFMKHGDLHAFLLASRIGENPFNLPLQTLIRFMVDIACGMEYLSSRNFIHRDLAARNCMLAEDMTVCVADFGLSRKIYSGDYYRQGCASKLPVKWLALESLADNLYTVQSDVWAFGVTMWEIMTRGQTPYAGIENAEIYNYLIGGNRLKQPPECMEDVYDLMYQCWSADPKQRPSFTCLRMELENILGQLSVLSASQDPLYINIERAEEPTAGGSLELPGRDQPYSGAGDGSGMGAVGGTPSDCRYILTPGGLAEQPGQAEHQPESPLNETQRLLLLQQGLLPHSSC

[2] = target: T2, Ephrin type-B receptor 1 (Homo sapiens) (UniProt P54762); assay: Selectivity interaction (Ambit KINOMEscan and KiNATiv profiling in Jurkat cells) EUB0000090b EPHB1; format: cell-based; settings: at 1 µM
T2 sequence (whole entry): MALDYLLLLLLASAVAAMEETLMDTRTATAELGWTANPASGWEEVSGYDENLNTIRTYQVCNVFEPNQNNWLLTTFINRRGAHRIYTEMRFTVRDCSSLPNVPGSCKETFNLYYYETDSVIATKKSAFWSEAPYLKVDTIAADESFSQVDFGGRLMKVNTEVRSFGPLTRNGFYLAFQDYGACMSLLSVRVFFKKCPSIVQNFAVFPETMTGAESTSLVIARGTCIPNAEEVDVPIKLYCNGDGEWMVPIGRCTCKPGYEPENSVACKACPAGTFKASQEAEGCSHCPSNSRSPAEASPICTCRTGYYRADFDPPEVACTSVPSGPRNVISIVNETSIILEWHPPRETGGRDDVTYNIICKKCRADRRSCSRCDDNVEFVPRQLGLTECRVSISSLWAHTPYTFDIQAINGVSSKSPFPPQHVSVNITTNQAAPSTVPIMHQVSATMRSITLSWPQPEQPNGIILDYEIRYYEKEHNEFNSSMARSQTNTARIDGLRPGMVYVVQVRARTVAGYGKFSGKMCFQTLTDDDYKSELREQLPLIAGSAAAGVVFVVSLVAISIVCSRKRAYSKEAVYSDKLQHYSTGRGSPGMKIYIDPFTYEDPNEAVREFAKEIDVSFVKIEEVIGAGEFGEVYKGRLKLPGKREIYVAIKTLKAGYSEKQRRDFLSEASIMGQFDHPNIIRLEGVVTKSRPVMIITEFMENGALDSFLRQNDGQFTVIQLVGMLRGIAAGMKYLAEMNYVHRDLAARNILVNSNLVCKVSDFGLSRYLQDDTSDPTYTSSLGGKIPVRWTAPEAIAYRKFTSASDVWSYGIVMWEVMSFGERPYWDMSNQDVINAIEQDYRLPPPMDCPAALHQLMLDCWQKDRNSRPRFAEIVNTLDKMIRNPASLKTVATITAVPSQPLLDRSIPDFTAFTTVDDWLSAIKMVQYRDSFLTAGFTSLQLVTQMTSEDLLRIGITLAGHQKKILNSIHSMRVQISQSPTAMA

[3] = target: T3, Tyrosine-protein kinase ITK/TSK (Homo sapiens) (UniProt Q08881); assay: Selectivity interaction (KinomeScan (DiscoverX)) EUB0000229b ITK; settings: at 10 µM
T3 sequence (whole entry): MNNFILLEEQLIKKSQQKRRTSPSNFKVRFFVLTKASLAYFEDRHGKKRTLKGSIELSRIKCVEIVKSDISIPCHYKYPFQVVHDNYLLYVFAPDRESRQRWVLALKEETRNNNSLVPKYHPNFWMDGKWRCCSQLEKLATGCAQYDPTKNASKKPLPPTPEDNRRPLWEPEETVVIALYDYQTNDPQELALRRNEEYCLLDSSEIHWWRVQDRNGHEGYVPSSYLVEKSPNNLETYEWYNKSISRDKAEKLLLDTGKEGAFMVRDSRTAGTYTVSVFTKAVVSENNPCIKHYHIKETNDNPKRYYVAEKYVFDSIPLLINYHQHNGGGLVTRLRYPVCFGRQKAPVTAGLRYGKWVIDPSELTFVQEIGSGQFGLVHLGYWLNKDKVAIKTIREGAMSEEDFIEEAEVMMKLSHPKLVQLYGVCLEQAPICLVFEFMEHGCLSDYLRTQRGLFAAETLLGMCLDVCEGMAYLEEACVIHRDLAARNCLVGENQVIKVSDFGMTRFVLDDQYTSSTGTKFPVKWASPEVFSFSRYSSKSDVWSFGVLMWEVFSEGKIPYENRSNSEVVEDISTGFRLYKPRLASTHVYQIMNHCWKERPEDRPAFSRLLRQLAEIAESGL

`COc1cc(Nc2nc(C)cc(-c3cnn4nc(OC)ccc34)n2)cc(C(F)(F)F)c1` gave a % of control [1] of 76%.

`CN(C)C/C=C/C(=O)Nc1ccc(C(=O)N2CCCC(Nc3ncc(Cl)c(-c4c[nH]c5ccccc45)n3)C2)cc1` (stereo not drawn) showed a % of control [2] of 95%.

`COc1cc(N(C)c2ccnc3ccc(C(F)(F)F)cc23)cc(OC)c1OC` gave a % binding [3] of 94%.
